Measurements reported in article PMC6376136, “Impact of lipid binding on the tertiary structure and allergenic potential of Jug r 3, the non-specific lipid transfer protein from walnut” (Scientific Reports, 2019).

Target: T1, Jug r 3 (Juglans regia, UniProt C5H617)
T1 construct: mature protein, secreted from Pichia pastoris GS115 (pPICZalphaA), signal peptide removed; four extra N-terminal residues EAEF; monomer
T1 sequence (C5H617 27-119): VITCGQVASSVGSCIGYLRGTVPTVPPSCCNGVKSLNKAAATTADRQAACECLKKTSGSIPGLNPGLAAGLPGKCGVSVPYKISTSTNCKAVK
Experiment: ANS fluorescence displacement
Assay type: binding
Details: 10 uM protein, 10 uM ANS, protein:ligand 1:10 (100 uM ligand), overnight at 4 °C

% reduction of ANS fluorescence at protein:ligand 1:10: 31%
SMILES: CCCCCCCC/C=C\CCCCCCCC(=O)O [OLE, oleate]
